# Entries after “also recorded” stand apart in the source; their conditions may differ. Residues, ends and D or L forms follow the SMILES beside them. *: point of attachment. Cbz = O=C(OCc1ccccc1)*
# Key:
# [1] = test system: Salmonella; assay: Gentamycin protection assay: intracellular Salmonella in mEF; type: cell-based, Salmonella typhimurium
# Procedure: Mouse rectal carcinoma CMT-93 was transiently transfected with a P-2 siRNA pool, or with P-2-RFP. Scramble siRNA or RFP were also transfected and analyzed to serve as controls for P-2 siRNA and P-2-RFP respectively. All transfections were performed 24 hours prior to infection. 14 hours prior to infection, cells were incubated with 100 U/ml of species specific IFN-γ. At indicated time points after infection, cells were lysed and plated for CFU analysis. (FIGS. 16A-16D) mEF were transfected with P-2siRNA and complemented with siRNA resistant P-2-RFP cDNA 24 hours prior to infection. 14 hours prior to infection, interferon-γ was added. mEF were infected with late log phase S. typhimurium. At indicated time points mEFs were lysed and analyzed for colony forming units. […]
# S. typhimurium strain LT2Z), Mycobacterium smegmatis, methicillin-resistant Staphylococcus aureus, and E. coli strain K12 were grown from glycerol stocks at 37° C. with shaking for 24 hours in Luria broth (S. typhimurium, S. aureus, and E. coli) or Middlebrook 7H9 broth (M. smegmatis). […] At indicated time points, cells were washed with PBS, lysed using 1% Igepal in ddH2O, diluted and plated in technical triplicate on LB agar plates (S. typhimurium, S. aureus, E. coli) or Middlebrook 7H11 plates (M. smegmatis) and CFU determined after sufficient colony growth.
# [2] = test system: P-2 mRNA; assay: P-2 mRNA expression in mEF by TAQMAN PCR after cytokine treatment; type: cell-based, murine; details: added singly, 14 hours
# Procedure: (§1) Murine embryonic fibroblasts (FIG. 14A), a rectal cancer cell line (FIG. 14B), myoblast cell line (FIG. 14C), and an ovarian cell line (FIG. 14D) were treated for 14 hours with 100 U/ml interferon-α, interferon-β, and interferon-γ treated. LPS was treated at 1 ng/ml; IL-1α at 10 U/ml, IL-1β at 1 ng/ml, and TNFα at 20 ng/mL. A human embryonic kidney cell line (FIG. 14E) and cervical cancer cell line (FIG. 14F) were treated with human IFN-α at 150 U/ml, IFN-β and IFN-γ at 100 U/ml. The BV2 microglial cell line was stimulated with 100 U/ml of murine Interferon-γ for 14 hours to upregulate P-2 mRNA and protein. mEF treated with IFN-γ for 14 hours (mEF), or IFN-γ for 14 hours followed by 1 hour of treatment with […] MG-132 (mEF+MG132) (FIG. 14G). Human primary keratinocytes were analyzed for protein expression with indicated recombinant human IFN treatment (FIG. 14H). mEF were treated with E. coli or M. smegmatis. At indicated time points, cells were harvested and analyzed for P-2 mRNA and compared to uninfected controls by TAQMAN™ PCR. (FIG. 14I) mEF were either not stimulated, or stimulated for 14 hours with IFN-γ at 100 U/ml. After stimulation, mEF were infected with M. smegmatis and analyzed for colony forming units at indicated time points.
# Recombinant murine IL-1α, IL-1β, TNFα, IFN-γ, IFN-α, IFN-β recombinant human IFN-γ, IFN-β were purchased from preprotech. Recombant human IFN-α was purchased from R&D systems. Murine […] was supplemented at 10 U/mL where indicated. Murine IL-1β was supplemented at 1 ng/ml. Murine TNFα was supplemented at 20 ng/ml. Murine IFN-α, IFN-β and IFN-γ was supplemented with 100 U/ml. Human IFN-α was supplemented where indicated in at a concentration of 150 U/ml where indicated. Human IFN-β and IFN-γ was supplemented at a concentration of 100 U/ml. LPS was added at a concentration of 1 ng/ml.
# RNA was extracted from cells following RNeasy (Qiagen) instructions. One μg of RNA was converted to cDNA using QuantiTect Reverse Transcription kit (Qiagen) following supplier's protocol. qRT-PCR was performed using TAQMAN® Gene Expression Assays (Applied Biosystems) for murine Mpeg1 and GAPDH, with the later serving as a housekeeping control gene. For human tissues, human Mpeg1 and GapDH probes were utilized. All assays were performed on the Applied Biosystems 7300 PCR platform.
# [3] = test system: E. coli, S. typhimurium, M. smegmatis; assay: Gentamycin protection assay in PEM infected with E. coli, S. typhimurium or M. smegmatis (FIG. 1); type: cell-based; details: 10 mM NAC, 10 mM L-NAME or pool of 3 siRNAs, CFU at 1 h and 5 h
# Procedure: The gentamycin protection assay was carried out as in FIGS. 2A-2F. 24 h after transfection with P-2 siRNA or scrambled siRNA. PEM were infected with (FIG. 1A) E. coli, (FIG. 1B) S. typhimurium, or (FIG. 1C) M. smegmatis. Inhibitors were added 1 h before infection and maintained throughout assay. Cells were lysed and CFU determined at 1 h and 5 h post-infection. Data shown are representative of 3 experiments with 2 replicates; asterisks denote significance (p<0.05) based on students t-test.
# Gentamicin protection assay: S. typhimurium strain LT2Z, Mycobacterium avium, Mycobacterium smegmatis (ATCC), methicllin resistant Staphylococcus aureus and K12 E. coli were grown from glycerol stocks at 37° C. with shaking for 16-18 hr in Luria broth (LB) (S. typhimurium, S. aureus, and E. coli) or Middlebrook 7H9 broth (Mycobacteria) prior to infection. For Salmonella, the culture was then diluted 1:33 in LB and grown for another 3 hours to induce invasive phenotype. Macrophages or microglial cells were plated (5×10^5 cells/well of a 12 well plate) and stimulated overnight with LPS (Ing/ml) and IFN-γ (100 U/ml). […] At the indicated timepoints after adding gentamicin, the cells were washed with PBS, lysed using 0.1% Triton-X in water, diluted and plated in triplicate on agar plates and CFU determined.
# [4] = test system: S. typhimurium; assay: Gentamycin protection assay: intracellular S. typhimurium in peritoneal macrophages (PEM); type: cell-based, Salmonella typhimurium; details: for additional effect on intracellular replication/killing when combined with P-2 knockdown: inhibitor plus P-2 siRNA knock down; for effect on intracellular killing of Salmonellae: single effector blocked, 1-5 h post-infection
# Procedure: Gentamicin protection assay: S. typhimurium strain LT2Z, Mycobacterium avium, Mycobacterium smegmatis (ATCC), methicllin resistant Staphylococcus aureus and K12 E. coli were grown from glycerol stocks at 37° C. with shaking for 16-18 hr in Luria broth (LB) (S. typhimurium, S. aureus, and E. coli) or Middlebrook 7H9 broth (Mycobacteria) prior to infection. For Salmonella, the culture was then diluted 1:33 in LB and grown for another 3 hours to induce invasive phenotype. Macrophages or microglial cells were plated (5×10^5 cells/well of a 12 well plate) and stimulated overnight with LPS (Ing/ml) and IFN-γ (100 U/ml). Cells were infected the next day at indicated MOI for 30 minutes (S. typhimurium,) or 1 hour (all other bacteria) in 37° C., 5% CO2 incubator. Cells were washed twice with PBS and fresh medium containing 50 μg/ml gentamicin was added. After 2 hours the concentration of gentamicin was lowered to 5 μg/ml. At the indicated timepoints after adding gentamicin, the cells were washed with PBS, lysed using 0.1% Triton-X in water, diluted and plated in triplicate on agar plates and CFU determined.
# The current understanding of bactericidal responses in macrophages is that they are mediated by oxidative mechanisms, such as ROS and NO within the phagosome, and by phagosome-lysosome fusion. To assess the role of P-2 in comparison to ROS and NO in intracellular killing of bacteria, each of the bactericidal effectors was blocked individually or in combination with P-2, and intracellular bacterial survival in peritoneal macrophages (PEM) measured between 1 and 5 hours post-infection utilizing the gentamycin protection assay (FIGS. 1A-1C). Gentamycin is membrane impermeable and present only in the extracellular medium. Inhibition of ROS, NO or P-2 individually had different effects on different bacteria. Using S. typhimurium, ˜90% bacteria present intracellularly in PEM at 1 h were dead at 5 h in the absence of inhibitors (˜10% survival, FIG. 1 A). […] In other words without P-2 ROS and NO have little effect on killing of Salmonellae.
# Here we analyze the bactericidal efficiency of each effector pathway and their synergism. We blocked each effector individually and determined intracellular survival and replication or killing of intracellular S. typhimurium and M. smegmatis. These experiments were carried out with intestinal epithelial cells (CMT93) (not shown) and in IFN-γ activated PEM (FIG. 27e) with virtually identical results. First, we ascertained that IFN-γ activated and LPS stimulated PEM produced ROS and NO and that this production is not affected by P-2 siRNA knock down. We also ascertained that the ROS and NO inhibitors used were specific and active in blocking ROS or NO (not shown). PEM are able to kill about 90% of intracellular Salmonella in the first four hours after infection when all three effectors were active in scramble siRNA transfected cells (FIG. 27e, solid lines). […] M. smegmatis is more resistant to killing by bactericidal effectors within 4 hours. […] Blockade of ROS or NO without P-2 knock down had only limited, non-significant effects on bactericidal activity against Mycobacteria.
# Intracellular bactericidal activity was adapted from. In brief, bacteria were grown at 37° C. with shaking for 16-18 hours in Luria broth (LB) (S. typhimurium, S. aureus, and E. coli) or 24 hours in Middlebrook 7H9 broth (Mycobacteria) prior to infection. For S. typhimurium, E. coli, and S. aureus the culture was then diluted 1:33 in LB and grown for another 3 hours to allow the bacteria to enter log phase and for Salmonella to induce the invasive phenotype. Eukaryotic cells were transfected following Lonza's optimized protocol for the respective cells, and plated into 12-well plates post-transfection. […]
# [5] = test system: E. coli, S. typhimurium and M. smegmatis; assay: Bacterial growth in medium with ROS/NO inhibitors, no PEM (OD 600); type: cell-based; details: 10 mM, IMDM+10% FBS, 5 hours
# Procedure: E. coli, S. typhimurium and M. smegmatis were grown in IMDM+10% FBS in the presence or absence of NAC (10 mM) or L-NAME (10 mM) for 5 hours. Bacterial growth was measured by spectrophotometer at an OD of 600 nm at 1 and 4 hours after addition of inhibitors to the culture medium.
# [6] = test system: P-2 protein; assay: Western blot of P-2 protein in interferon-activated mEF; type: cell-based, murine; details: IFN-γ 14 hours then 1 hour MG-132
# Procedure: as §1
# Rabbit anti-Mpeg1 polyclonal antibody was obtained from Abcam and used for western blot analysis.
molecule,measurement,setting,value
"Cn1cnc(N)c2ncnc1-2 [3-MA, 3-methyl-adenine]",effect on intracellular Salmonella replication in mEF,[1],permits Salmonella replication; also recorded: allows replication of Salmonella
TNFα,P-2 mRNA induction in mEF,[2],do not induce P-2 mRNA
IFNα,P-2 mRNA induction in mEF,[2],up-regulates P-2 mRNA
"CC(=O)N[C@@H](CS)C(=O)O [NAC, N-Acetylcysteine]",intracellular killing,[3],Intracellular killing was inhibited
same,survival of Salmonellae at 5 h compared to 1 h levels,"[4]; inhibitor 10 mM, added 1 h before infection, ~10% survival without inhibitors",~80%
same,additional effect on intracellular replication/killing when combined with P-2 knockdown,[4],did not further increase intracellular replication; also recorded: no further effect
same,effect on intracellular killing of Salmonellae,[4],slows down the killing activity
same,effect on bacterial growth in the absence of PEM,[5],do not directly inhibit bacterial growth
"COC(=O)[C@@H](N)CCCN=C(N)N[N+](=O)[O-].Cl [L-NAME, N^G-nitro-L-arginine-methyl ester hydrochloride]",intracellular killing,[3],Intracellular killing was inhibited
same,additional effect on intracellular replication/killing when combined with P-2 knockdown,[4]; hydrochloride,did not further increase intracellular replication
same,additional effect on intracellular replication/killing when combined with P-2 knockdown,"[4]; listed as NAME, hydrochloride",no further effect
same,effect on intracellular killing of Salmonellae,[4]; hydrochloride,slows down the killing activity
same,effect on bacterial growth in the absence of PEM,[5],do not directly inhibit bacterial growth
CC(C)C[C@@H](C=O)NC(=O)[C@H](CC(C)C)NC(=O)[C@H](CC(C)C)NC(=O)OCc1ccccc1 [MG132] (Cbz-Leu-Leu-Leu-aldehyde),detection of P-2 protein by Western blot,[6],P-2 protein is not detected by Western blot analysis of interferon-activated mEF unless the proteasome inhibitor MG132 is added
"IL-1α: recombinant murine IL-1α (protein, UniProt P01582 115-270, looked up) Interleukin-1 alpha: SAPYTYQSDLRYKLMKLVRQKFVMNDSLNQTIYQDVDKHYLSTTWLNDLQQEVKFDMYAYSSGGDDSKYPVTLKISDSQLFVSAQGEDQPVLLKELPETPKLITGSETDLIFFWKSINSKNYFTSAAYPELFIATKEQSRVHLARGLPSMTDFQIS",P-2 mRNA induction in mEF,[2],do not induce P-2 mRNA
